In experiment [1] the target is T1, phosphorylated VEGF-R2Δ50 (FLVK-P) (Homo sapiens, UniProt P35968, DEL940-989/E990V).
T1 construct: VEGF-R2Δ50 contains residues 806-939 and 990-1171; made in house; host or cells: baculovirus/insect cells
The experiment in a line: VEGF-R2 coupled spectrophotometric (FLVK-P) assay. It is filed as biochemical. The conditions noted are these: for Ki: Table 1, spectrophotometric assay. The essentials:
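Baculovirus-expressed human VEGF-R2Δ50 (residues 806-939/990-1171, E990V) was autophosphorylated with 3 mM ATP, 40 mM MgCl2 for 2 h at 4° C. ADP formation was coupled via PK/LDH to NADH oxidation, read at 340 nm, with 5.1 mM poly(E4Y1), 1 mM ATP, 25 mM MgCl2, Hepes pH 7.5. Ki came from activity across compound concentrations.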

Experiment [2] concerns human umbilical vein endothelial cells (HUVEC). Briefly: HUVEC proliferation assay. It is filed as cell-based. Particulars: Homo sapiens, HUVEC. The essentials: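 Readout was MTT dye reduction (A595) after 72 h of stimulation with VEGF at 6 ng/ml final. Compound, in 0.1% DMSO final, was added 1 h before VEGF to HUVEC starved 24 h in 1% FBS. % inhibition was scaled between VEGF-alone and unstimulated wells; IC50 was fitted from triplicate dose curves.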

Experiment [3] concerns lung cancer cells (line MV522). The experiment in a line: Cancer cell proliferation (MV522) assay. It is filed as cell-based. Particulars: MV522, Table 1. How it is done: Cancer Cell Proliferation (MV522) Assay
The protocol for assessing cellular proliferation in cancer cells is similar to that used for assessments in HUVEC cells. Two thousand lung cancer cells (line MV522, acquired from American Tissue Cultural Collection) were seeded in growth media (RPMI1640 medium supplemented with 2 mM glutamine and 10% FBS). Cells are allowed to attach for 1 day prior to addition of test agents and/or vehicles. Cells are treated simultaneously with the same test agents used in the HUVEC assay. Cellular proliferation is quantified by MTT dye reduction assay 72 hours after exposure to test agents. The total length of the assay is 4 days vs. 5 for HUVEC cells because MV522 cells are not exposed to starvation medium.

For experiment [4], the target named is T2, unphosphorylated VEGF-R2Δ50 (FLVK) (Homo sapiens, UniProt P35968, DEL940-989/E990V).
T2 construct: VEGF-R2Δ50 contains residues 806-939 and 990-1171; made in house; host or cells: baculovirus/insect cells
The experiment in a line: VEGF-R2 coupled spectrophotometric assay, unphosphorylated enzyme (FLVK). It is filed as biochemical. The essentials: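 Unphosphorylated VEGF-R2Δ50 (5 to 40 nM) with 20 mM poly(E4Y1), 3 mM ATP, 60 mM MgCl2, 2 mM MnCl2 in 200 mM Hepes pH 7.5. ADP production coupled via PK/LDH to NADH oxidation, read at 340 nm. Ki from activity at varying compound concentrations.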

The mark [5] stands for this setting: Table 3, some entries 'Slow binder'.

Molecules are shown by their SMILES.

T2 sequence (P35968 with tags, fused parts or gaps DEL940-989/E990V limits assumed): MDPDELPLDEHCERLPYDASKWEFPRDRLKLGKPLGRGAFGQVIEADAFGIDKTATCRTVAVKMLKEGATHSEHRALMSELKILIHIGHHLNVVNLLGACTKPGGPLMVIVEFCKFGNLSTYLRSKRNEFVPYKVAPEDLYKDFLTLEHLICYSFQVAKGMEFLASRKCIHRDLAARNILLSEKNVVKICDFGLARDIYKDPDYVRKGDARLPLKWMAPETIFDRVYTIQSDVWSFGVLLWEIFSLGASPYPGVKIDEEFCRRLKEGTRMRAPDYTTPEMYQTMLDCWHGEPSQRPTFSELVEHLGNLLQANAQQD
T1 sequence (P35968 with tags, fused parts or gaps DEL940-989/E990V limits assumed): as above

Broadly, the Ki is a measure of affinity in units of concentration, obtained from inhibition or displacement. A lower Ki goes with higher affinity. What is called IC50 is the concentration that gives 50% inhibition. A low value points to greater potency in that assay. `COc1ccc(Nc2nc(N)c(-c3nc(-c4cccc(NC(=O)c5ccccc5)c4)cs3)s2)cc1OC` [A(47), N-{3-[4′-Amino-2′-(3,4-dimethoxy-phenylamino)-[2,5′]bithiazolyl-4-yl]-phenyl}-benzamide] gave a Ki in experiment [1] of 0.0079 µM. Besides, the results for the 50% inhibitory concentration (IC50) in experiment [2] (Table 1) and in experiment [3] were 0.26 µM and over 10 µM, respectively.

Regarding `COc1cc(Nc2nc(N)c(-c3nc(-c4cccc(NC(=O)OC(C)(C)C)c4)no3)s2)cc(OC)c1OC` [B(2), 3-(3-tert-Butyloxycarboxy-aminophenyl)-5-[2-[(3,4,5-trimethoxyphenyl)amino]-4-amino-5-thiazolyl]-1,2,4-oxadiazole], the Ki in experiment [1] amounted to 0.0165 µM. Also, the values for the IC50 in experiment [2] (Table 1) and in experiment [3] were over 0.7 µM and 3.65 µM, respectively.

Regarding `COc1cc(Nc2nc(N)c(-c3nc(-c4cccc(NS(C)(=O)=O)c4)cs3)s2)cc(OC)c1OC` [D(3), N-{3-[4′-Amino-2′-(3,4,5-trimethoxy-phenylamino)-[2,5′]bithiazolyl-4-yl]-phenyl}-methanesulfonamide], the affinity in experiment [1], expressed as Ki, was 0.063 µM. The values for the IC50 in experiment [2] (Table 1) and in experiment [3] were over 0.7 µM and over 10 µM, respectively.

The compound `Nc1nc(Nc2ccccc2)sc1-c1nc(-c2cccc(NC(=O)OCc3ccccc3)c2)cs1` [D(20), [3-(4′-Amino-2′-phenylamino-[2,5′]bithiazolyl-4-yl)-phenyl]-carbamic acid benzyl ester] registered an inhibition constant (Ki) in experiment [1] of 0.0037 µM. For the same compound, the half-maximal inhibitory concentration (IC50) in experiment [2] (Table 1) was 0.99 µM; in experiment [3], over 10 µM.

`COc1cc(Nc2nc(N)c(-c3nc(-c4cccc(NC(=O)O[C@H](C)c5ccccc5)c4)cs3)s2)cc(OC)c1OC` [D(23), {3-[4′-Amino-2′-(3,4,5-trimethoxy-phenylamino)-[2,5′]bithiazolyl-4-yl]-phenyl}-carbamic acid 1-R-phenyl-ethyl ester] gave an inhibition constant (Ki) in experiment [1] of 0.15 µM. For the same compound, the IC50 in experiment [2] (Table 1) is 0.13 µM; in experiment [3], over 10 µM.

Regarding `Nc1nc(Nc2ccc(S(N)(=O)=O)cc2)sc1-c1nc(-c2cccc(NC(=O)OCc3ccccc3)c2)cs1` [D(25), {3-[4′-Amino-2′-(4-sulfamoyl-phenylamino)-[2,5′]bithiazolyl-4-yl]-phenyl}-carbamic acid benzyl ester], the affinity in experiment [1], expressed as Ki, was 0.001 µM. Further, the half-maximal inhibitory concentration (IC50) in experiment [2] (Table 1) was 0.745 µM; in experiment [3] it was over 10 µM.

Compound `COc1cc(Nc2nc(N)c(-c3nc(-c4cccc(NC(=O)c5cccc(C(C)C)c5)c4)cs3)s2)cc(OC)c1OC` [D(27), N-{3-[4′-Amino-2′-(3,4,5-trimethoxy-phenylamino)-[2,5′]bithiazolyl-4-yl]-phenyl}-3-isopropyl-benzamide] came in with a Ki in experiment [1] of 0.0018 µM. The IC50 in experiment [2] (Table 1) is 0.082 µM; in experiment [3], over 10 µM.

Compound `COc1cc(Nc2nc(N)c(-c3nc(-c4cccc(NC(=O)c5cccc(Br)c5)c4)cs3)s2)cc(OC)c1OC` [D(29), N-{3-[4′-Amino-2′-(3,4,5-trimethoxy-phenylamino)-[2,5′]bithiazolyl-4-yl]-phenyl}-3-bromo-benzamide] yielded a Ki in experiment [1] of 0.0014 µM. Also, the concentration for half-maximal inhibition (IC50) in experiment [2] (Table 1) is 0.032 µM; in experiment [3], over 10 µM.

In experiment [1], `COc1cc(Nc2nc(N)c(-c3nc(-c4cccc(NC(=O)c5ccc(Cl)c(C)c5)c4)cs3)s2)cc(OC)c1OC` [D(30), N-{3-[4′-Amino-2′-(3,4,5-trimethoxy-phenylamino)-[2,5′]bithiazolyl-4-yl]-phenyl}-4-chloro-3-methyl-benzamide] gave an inhibitory constant (Ki) of 0.0029 µM. The IC50 was 0.048 µM in experiment [2] (Table 1) and over 10 µM in experiment [3].

For the compound `COc1cc(C(=O)Nc2cccc(-c3csc(-c4sc(Nc5cc(OC)c(OC)c(OC)c5)nc4N)n3)c2)ccc1C` [D(32), N-{3-[4′-Amino-2′-(3,4,5-trimethoxy-phenylamino)-[2,5′]bithiazolyl-4-yl]-phenyl}-3-methoxy-4-methyl-benzamide], the Ki in experiment [1] amounted to 0.0039 µM. The 50% inhibitory concentration (IC50) was 0.059 µM in experiment [2] (Table 1) and over 10 µM in experiment [3].

Take `COc1cc(Nc2nc(N)c(-c3nc(-c4cccc(NC(=O)c5ccc(C)s5)c4)cs3)s2)cc(OC)c1OC` [D(34), 5-Methyl-thiophene-2-carboxylic acid {3-[4′-amino-2′-(3,4,5-trimethoxy-phenylamino)-[2,5′]bithiazolyl-4-yl]-phenyl}-amide]: the affinity in experiment [1], expressed as Ki, was 0.00085 µM. In addition, the results for the IC50 in experiment [2] (Table 1) and in experiment [3] were 0.089 µM and 9 µM, respectively.

The compound `COc1cc(Nc2nc(N)c(-c3nc(-c4cccc(NC(=O)c5ccc(Cl)s5)c4)cs3)s2)cc(OC)c1OC` [D(35), 5-Chloro-thiophene-2-carboxylic acid {3-[4′-amino-2′-(3,4,5-trimethoxy-phenylamino)-[2,5′]bithiazolyl-4-yl]-phenyl}-amide] had a Ki in experiment [1] of 0.0018 µM. Moreover, the IC50 in experiment [2] (Table 1) was 0.042 µM; in experiment [3] it was over 10 µM.

`COc1cc(Nc2nc(N)c(-c3nc(-c4cccc(NC(=O)c5ccc(Br)s5)c4)cs3)s2)cc(OC)c1OC` [D(36), 5-Bromo-thiophene-2-carboxylic acid {3-[4′-amino-2′-(3,4,5-trimethoxy-phenylamino)-[2,5′]bithiazolyl-4-yl]-phenyl}-amide] came in with a Ki in experiment [1] of 0.002 µM. The IC50 in experiment [2] (Table 1) was 0.043 µM; in experiment [3], over 10 µM.

The compound `COc1cc(Nc2nc(N)c(-c3nc(-c4cccc(NC(=O)c5ccc(Br)o5)c4)cs3)s2)cc(OC)c1OC` [D(37), 5-Bromo-furan-2-carboxylic acid {3-[4′-amino-2′-(3,4,5-trimethoxy-phenylamino)-[2,5′]bithiazolyl-4-yl]-phenyl}-amide] came in with an inhibitory constant (Ki) in experiment [1] of 0.0034 µM. Besides, the concentration for half-maximal inhibition (IC50) in experiment [2] (Table 1) was 0.15 µM; in experiment [3], over 10 µM.

With `COc1cc(Nc2nc(N)c(-c3nc(-c4cccc(NC(=O)c5cccc(C)c5)c4)cs3)s2)cc(OC)c1OC` [D(38), N-{3-[4′-Amino-2′-(3,4,5-trimethoxy-phenylamino)-[2,5′]bithiazolyl-4-yl]-phenyl}-3-methyl-benzamide], in experiment [1], the inhibition constant Ki is 0.00093 µM. For the same compound, the figures for the IC50 in experiment [2] (Table 1) and in experiment [3] were 0.04 µM and over 10 µM, respectively.

`COc1cc(Nc2nc(N)c(-c3nc(-c4cccc(NC(C)=O)c4)no3)s2)cc(OC)c1OC` [D(45), 3-[3-Acetamidophenyl]-5-[2-[(3,4,5-trimethoxyphenyl)amino]-4-amino-5-thiazolyl]-1,2,4-oxadiazole]: the figures for the half-inhibitory concentration (IC50) in experiment [2] (Table 1) and in experiment [3] were 0.235 µM and 0.65 µM, respectively.

In the case of `CNC(=O)Nc1nc(N)c(-c2nc(-c3cccc(NC(=O)c4ccc(Cl)s4)c3)cs2)s1` [F(1), 5-Chloro-thiophene-2-carboxylic acid {3-[4′-amino-2′-(3-methyl-ureido)-[2,5′]bithiazolyl-4-yl]-phenyl}-amide], the figures for the Ki in experiment [1] and in experiment [4] (Table 1) were 0.00091 µM and 0.0014 µM, respectively. This compound registered an IC50 in experiment [2] (Table 1) of 0.029 µM.

Turning to `CC(=O)Nc1nc(N)c(-c2nc(-c3cccc(NC(=O)c4ccc(Cl)s4)c3)cs2)s1` [F(2), N-[3-(2′-Acetylamino-4′-amino-[2,5′]bithiazolyl-4-yl)-phenyl]-5-chloro-thiophene-2-carboxamide], the figures for the Ki in experiment [1] and in experiment [4] (Table 1) were 0.0039 µM and 0.00471 µM, respectively. In addition, in experiment [2] (Table 1), the IC50 is 0.086 µM.

`COc1cccc(C(=O)Nc2cc(-c3noc(-c4sc(NC(=O)NCc5cccnc5)nc4N)n3)c(F)cc2F)c1` [O(9), N-(5-{5-[4-Amino-2-(3-pyridin-3-ylmethyl-ureido)-thiazol-5-yl]-[1,2,4]oxadiazol-3-yl}-2,4-difluoro-phenyl)-3-methoxy-benzamide]: in experiment [4] (setting [5]), the Ki stood at 0.00042 µM. Moreover, the IC50 in experiment [2] (Table 3) worked out at 0.0043 µM.

For `COc1cccc(C(=O)Nc2cc(-c3noc(-c4sc(NC(=O)NCCO)nc4N)n3)c(F)cc2F)c1` [O(10), N-[5-(5-{4-Amino-2-[3-(2-hydroxy-ethyl)-ureido]-thiazol-5-yl}-[1,2,4]oxadiazol-3-yl)-2,4-difluoro-phenyl]-3-methoxy-benzamide], the inhibition constant Ki in experiment [4] (setting [5]) was found to be 0.094 µM. The IC50 in experiment [2] (Table 3) turned out to be 0.0067 µM.

Compound `COc1cccc(C(=O)Nc2cc(-c3noc(-c4sc(NC(=O)N[C@H]5CC[C@H](O)CC5)nc4N)n3)c(F)cc2F)c1` [O(11), N-[5-(5-{4-Amino-2-[3-(trans-4-hydroxy-cyclohexyl)-ureido]-thiazol-5-yl}-[1,2,4]oxadiazol-3-yl)-2,4-difluoro-phenyl]-3-methoxy-benzamide] yielded an inhibition constant Ki in experiment [4] (setting [5]) of 0.00045 µM. Further, half-maximal inhibition in experiment [2] (Table 3) (IC50) was put at 0.014 µM.

A word on the inhibition: it is how much of the control response was suppressed. Read a low inhibition as a weak effect. `CC[C@H](CO)NC(=O)Nc1nc(N)c(-c2nc(-c3cc(NC(=O)c4cccc(OC)c4)c(F)cc3F)cs2)s1` [O(21), N-(5-{4′-Amino-2′-[3-((R)-1-hydroxymethyl-propyl)-ureido]-[2,5′]bithiazolyl-4-yl}-2,4-difluoro-phenyl)-3-methoxy-benzamide]: in experiment [1] (Table 3, at 50 nM), the inhibition at 0.05 µM worked out at 61%. This compound also showed an inhibition constant Ki in experiment [4] (setting [5]) of 0.0011 µM.

The record behind these values is patent US6620828B2, “Thiazole compounds and pharmaceutical compositions for inhibiting protein kinases and methods for their use” (Agouron Pharmaceuticals, Inc., priority 1999, dated 2003).
